In patent US20150307938A1, “METHOD TO IDENTIFY A NOVEL CLASS OF IMMUNOLOGIC ADJUVANTS” (Lancell, L.L.C., priority 2011, published 2015):

Legend:
[1] = test system: skin dendritic cells; assay: Flow cytometric analysis of Ahr−/− response to topical DBP; settings: topical application
[2] = test system: Fluzone; set-up: species or system C57BL/6 mice; settings: mouse, in vivo

SMILES | skin dendritic cell response in AhR−/− mice [1] | HAI titer / adjuvant effect with the same dose of Fluzone [2]
O=[N+]([O-])c1ccc(F)c([N+](=O)[O-])c1 [dinitrofluorobenzene, reference compound] | severely impaired | 
CC12CCC(CC1=O)C2(C)C (centres unmarked) [camphor] |  | improved
